Test results: paper PMC9054546, “Synthesis and molecular modeling studies of cholinesterase inhibitor dispiro[indoline-3,2′-pyrrolidine-3′,3′′-pyrrolidines]” (RSC Advances, 2020)
Where “and” joins values, the source holds several entries; their conditions need not be identical. Equal values may be shown once. Read-outs that look alike come from different tables or passages of the source.

Experiments:
[1] = target: T1, AChE (Homo sapiens, UniProt P22303); test: biochemical; details: for SI(AChE/BChE): selectivity index = IC50 (AChE)/IC50 (BChE)
T1 sequence (P22303 32-614): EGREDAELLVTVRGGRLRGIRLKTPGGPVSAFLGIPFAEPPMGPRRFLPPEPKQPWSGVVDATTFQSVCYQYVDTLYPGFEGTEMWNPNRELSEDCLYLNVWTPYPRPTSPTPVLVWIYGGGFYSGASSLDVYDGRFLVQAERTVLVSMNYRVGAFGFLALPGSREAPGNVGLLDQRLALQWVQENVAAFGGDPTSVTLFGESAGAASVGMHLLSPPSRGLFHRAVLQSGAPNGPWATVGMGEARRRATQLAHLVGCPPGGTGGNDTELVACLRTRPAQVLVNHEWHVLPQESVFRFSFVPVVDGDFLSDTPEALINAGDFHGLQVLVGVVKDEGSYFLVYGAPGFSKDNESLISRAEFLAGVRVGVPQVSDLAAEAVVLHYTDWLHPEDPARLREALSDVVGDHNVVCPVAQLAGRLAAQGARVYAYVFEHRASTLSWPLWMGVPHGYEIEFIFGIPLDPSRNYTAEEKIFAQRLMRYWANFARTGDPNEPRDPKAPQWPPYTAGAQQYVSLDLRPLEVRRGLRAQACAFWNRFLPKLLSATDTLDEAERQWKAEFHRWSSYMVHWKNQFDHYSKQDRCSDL
Description: (§1) Butyrylthiocholine iodide and acetylthiocholine were utilized as substrates in BChE and AChE assays, respectively, where DTNB was served as indicator. All compounds were dissolved in MeOH. […] Blank assays were performed by replacing the enzyme (20 μL) with buffer and their absorbances were recorded for correction of the spontaneous lysis of the indicator or inherent color of the inhibitor.
Selectivity index (SI) for acetyl and butyryl cholinesterases was calculated as follow:SI(AChE/BChE) = IC50 (AChE)/IC50 (BChE)SI(BChE/AChE) = […]

[2] = target: T2, BChE (Homo sapiens, UniProt P06276); test: biochemical; details: for SI(BChE/AChE): selectivity index BChE/AChE
T2 sequence (P06276 29-602): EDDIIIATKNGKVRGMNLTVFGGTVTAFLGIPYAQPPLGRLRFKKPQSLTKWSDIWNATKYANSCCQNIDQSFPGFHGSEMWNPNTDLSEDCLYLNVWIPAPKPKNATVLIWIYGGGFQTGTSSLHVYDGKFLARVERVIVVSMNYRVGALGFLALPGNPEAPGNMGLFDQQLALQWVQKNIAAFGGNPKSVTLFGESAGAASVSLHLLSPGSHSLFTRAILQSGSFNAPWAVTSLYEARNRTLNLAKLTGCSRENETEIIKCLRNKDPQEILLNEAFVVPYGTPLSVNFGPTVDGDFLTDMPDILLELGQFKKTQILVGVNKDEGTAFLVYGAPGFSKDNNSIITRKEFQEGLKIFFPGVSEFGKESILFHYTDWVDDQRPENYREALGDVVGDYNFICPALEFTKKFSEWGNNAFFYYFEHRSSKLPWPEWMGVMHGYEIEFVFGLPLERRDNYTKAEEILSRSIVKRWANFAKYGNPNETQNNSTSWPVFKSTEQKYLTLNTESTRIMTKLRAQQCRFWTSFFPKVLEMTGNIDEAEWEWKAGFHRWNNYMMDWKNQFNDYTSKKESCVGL
Description: as §1, with “inhibitor. […]” for “inhibitor.”

[3] = tested on: mice; test: Acute toxicological bio-assay in mice; assay type: in vivo; details: intraperitoneal, 50, 100 and 250 mg kg−1, recorded 24 h post-administration
Description: Albino mice weighing 20–25 g were divided into 4 groups of 6 mice each. Administrations of the tested compounds dissolved in saline solution (0.9%) by the aid of few drops of Tween 80 were given intraperitoneally in 50, 100 and 250 mg kg^−1 (mice body weight). The control group was given a saline solution only with few drops of Tween 80. The toxic symptoms and mortality rates were recorded 24 h post-administration in each group.

[4] = target: T1, AChE; test: 2D-QSAR (BMLR, CODESSA-Pro) model, AChE inhibitors; details: observed minus estimated IC50
Source text: (§2) The cholinesterase properties observed were undertaken by CODESSA-Pro software accessible for optimizing 2D-QSAR models.[39–41] This is useful for well understanding the bio-observations and identifying the parameters necessary for bio-potency. Three descriptor QSAR models were developed due to the AChE and BChE inhibitory properties of the synthesized dispiro-compounds 8a–l (ESI Tables S4–S9, Fig. S40 and S41, details of the QSAR descriptors are also mentioned in the ESI). ^† […]
(§3) Goodness of the QSAR models was supported by the comparative values of the correlation coefficient (R^2) with their cross validation of leave one-out (R^2cvOO) and leave many-out (R^2cvMO) [R^2 = 0.923, 0.979; R^2cvOO = 0.882, 0.936; R^2cvMO = 0.904, 0.956, for AChE and BChE models, respectively]. Standard deviation (s^2) and Fisher criteria (F) values of the models also support their goodness (s^2 = 0.026, 0.005; […]. Additionally, the correlations of the observed and predicted values “specially the high potent synthesized compounds” add good support for the attained models. […]
(§4) Molecular modeling studies
(§5) The synthesized dispiro[indoline-3,2'-pyrrolidine-3',3''-pyrrolidines] 8a‒l […]
(§6) 2D-QSAR modeling by CODESSA-Pro (comprehensive descriptors for structural and statistical analysis) software. Geometry of the compounds was initially optimized by AM1 technique using hyperChem 8.0 then, uploaded to CODESSA-Pro for final geometrical structure optimization by MOPAC.10‒12 CODESSA-Pro calculated 656 molecular descriptors (constitutional, topological, geometrical, charge-related, semi-empirical, thermodynamical, molecular-type, atomic-type and bond-type descriptors) for […]
(§7) the exported bio-active agents. Mathematical transformation of the experimental values […]
(§8) QSAR model. The best multi-linear regression (BMLR) technique was utilized which is a stepwise search for the best n-parameter regression equations (where n stands for the number of descriptors used), based on the highest R2 (squared correlation coefficient), R2cvOO (squared cross-validation “leave one-out, LOO” coefficient), R2cvMO (squared cross-validation “leave many-out up to 20% of the training set, LMO” coefficient), F (Fisher statistical significance criteria) values, and s2 (standard deviation). The QSAR up to 3-descriptor model describing the biological activity of the bio-active agents were generated (obeying the thumb rule of 4:1 which is the ratio between the data points and the number of QSAR descriptor).
(§9) Minimum (>0.1) bond order for atom C is an atomic type descriptor with the […]
(§10) why the higher descriptor value, the lower AChE inhibitory efficacy of the tested agent as […]
(§11) 2/SQRT(TMSA) (MOPAC PC) is a charge related descriptor with relatively high […]
(§12) . Compounds with high descriptor value predicted low AChE
(§13) 0.11715). HDCA2 (area weighed surface charge of hydrogen bonding donor atoms) can be calculated by equ. (1). 13
(§14) HDCA2 = D … .DtotH‒donor (1)
(§15) Where, standsSD for the solvent accessible surface area of H-bonding donor H atoms (selected by threshold charge), is the partialqD charge on H-bonding donor H atoms (selected by threshold charge) and is the totalStot solvent accessible molecular surface […]
(§16) Square root of surface area for atom C is also a charge related descriptor with […]
(§17) . For this reason, the higher descriptor value of […]

[5] = target: T2, BChE; test: 2D-QSAR (BMLR, CODESSA-Pro) model, BChE inhibitors; details: observed minus estimated IC50
Source text: as §2, §3, §4, §5, §6, §7, §8, §9, §10, §11, §12, §13, §14, §15, §16, §17
partial positively and negatively charged surface area can be calculated by equs. (2) and […]
PPSA3 = A … .. (2)A∈{δA>0}
PNSA3 = A … ..A∈{δA>0} (3)
Where, is the positively/negativelySA charged solvent accessible atomic surface area and qA is the atomic partial charge.
ZX Shadow/ZX rectangle is a geometrical descriptor with the highest coefficient […]
. The higher descriptor value of […]
compounds 8c and 8e, respectively). Relative shadow areas of a molecule can be determined by equ. (4). 13
Where, C is contour of the projection of the molecule on the plane defined by two principal axes of the molecule (k = XY, XZ or YZ plane), , , = X • ν –x or yρ –y or zS(k) […]
Maximum atomic state energy for atom O is an atomic type descriptor. […]

[6] = tested on: RPE1 (human immortalized retinal pigment epithelial cell line); test: Antiproliferative/cytotoxicity MTT assay on normal cell line; assay type: cell-based; details: RPE-1, 72 h incubation, tested at 100, 50, 25 and 12.5 μM, read-out: IC50 against RPE1
Source text: Antiproliferative properties of the synthesized agents 8a–l were considered against RPE1 (human immortalized retinal pigment epithelial cell line) normal cell line utilizing the standard MTT (tetrazolium salt) technique.[37]
The synthesized agents 8a–l were screened against RPE1 (human immortalized retinal pigment epithelial cell line) normal cell line to investigate their cytotoxicity by the standard mitochondrial dependent reduction of yellow MTT [3-(4,5-dimethylthiazol-2-yl)-2,5-diphenyl-tetrazolium bromide] to purple formazan technique.[37] Cells were suspended in DMEM in addition to 1% antibiotic–antimycotic mixture (10 000 μg mL^−1 potassium penicillin, 10 000 μg mL^−1 streptomycin sulfate and 25 μg mL^−1 amphotericin B), 10% fetal bovine serum and 1% L-glutamine at 37 °C, under 5% CO2 and 95% humidity. Cells were seeded at concentration of 30 000 cells per well in fresh complete growth medium in 96-well tissue culture microtiter plates for 24 h. […] 0.5% DMSO was used as negative control. Triplicate wells were prepared for each individual dose. After 72 h of incubation, medium was aspirated, 40 μl MTT salt (2.5 mg mL^−1) were added to each well and incubated for further 4 h at 37 °C. To stop the reaction and dissolve the formed crystals, 150 μL of 10% sodium dodecyl sulfate (SDS) in deionized water were added to each well and incubated overnight at 37 °C.
Data were collected as mean values for experiments performed in triplicates for each individual dose which had been measured by MTT assay. […] The percentage of cell survival was calculated according to the following equation. [drawing 1]
Statistical calculations for determination of the mean and standard error values were determined by SPSS 16 software.

[7] = 10 min incubation at 25 °C, read at 405 nm, read-out: IC50 of AChE (μM) ± SD
[8] = log transformation of the observed IC50, read-out: Observed log(IC50, μM), AChE (converted)
[9] = 10 min incubation at 25 °C, read at 405 nm, read-out: IC50 of BChE (μM) ± SD
[10] = log transformation of the observed IC50, read-out: Observed log(IC50, μM), BChE (converted)

Row | SMILES | IC50 [1, 7] | IC50 [1, 8] | SI(AChE/BChE) [1] | IC50 [2, 9] | IC50 [2, 10] | SI(BChE/AChE) [2] | Mortality rates or toxicological symptoms [3] | Error (difference between observed and estimated property values), AChE BMLR-QSAR model [4] | Error (difference between observed and estimated property values), BChE BMLR-QSAR model [5] | IC50 [6]
1 | COc1ccc2c(c1)C1(C(=O)N2)N(C)CC(c2ccc(Cl)cc2)C12CC(=O)N(c1ccccc1)C2=O (stereo not drawn) [Compound 8e, 4′-(4-Chlorophenyl)-5-methoxy-1′-methyl-1′′-phenyldispiro[indoline-3,2′-pyrrolidine-3′,3′′-pyrrolidine]-2,2′′,5′′-trione] | 3.4 µM and 3.35 µM | 3.35 µM | 0.60 | 5.6 µM and 5.63 µM | 5.63 µM | 1.68 | None of the tested agents reveal any mortality rates or toxicological symptoms | 0.10 µM | 0.86 µM | > 100 µM
2 | COc1ccc(C2CN(C)C3(C(=O)Nc4ccc(OC)cc43)C23CC(=O)N(c2ccccc2)C3=O)cc1 (stereo not drawn) [Compound 8g, 5-Methoxy-4′-(4-methoxyphenyl)-1′-methyl-1′′-phenyldispiro[indoline-3,2′-pyrrolidine-3′,3′′-pyrrolidine]-2,2′′,5′′-trione] | 3.2 µM and 3.15 µM | 3.15 µM | 0.66 | 4.7 µM and 4.74 µM | 4.74 µM | 1.50 | None of the tested agents reveal any mortality rates or toxicological symptoms | -1.78 µM | -0.65 µM | > 100 µM
3 | CN1CC(c2ccccc2)C2(CC(=O)N(c3ccc(Cl)cc3)C2=O)C12C(=O)Nc1ccccc12 (stereo not drawn) [Compound 8h, 1′′-(4-Chlorophenyl)-1′-methyl-4′-phenyldispiro[indoline-3,2′-pyrrolidine-3′,3′′-pyrrolidine]-2,2′′,5′′-trione] | 6.3 µM and 6.27 µM | 6.27 µM | 1.17 | 5.3 µM and 5.34 µM | 5.34 µM | 0.85 | None of the tested agents reveal any mortality rates or toxicological symptoms | -1.03 µM | -0.81 µM | > 100 µM
4 | COc1ccc2c(c1)C1(C(=O)N2)N(C)CC(c2ccc(Cl)cc2)C12CC(=O)N(c1ccc(Cl)cc1)C2=O (stereo not drawn) [Compound 8l, 1′′,4′-Bis(4-chlorophenyl)-5-methoxy-1′-methyldispiro[indoline-3,2′-pyrrolidine-3′,3′′-pyrrolidine]-2,2′′,5′′-trione] | 22 µM | 22 µM | 0.62 | 35.54 ± 0.33 µM | 35.5 µM | 1.62 | – | -7.93 µM | -0.71 µM | > 100 µM
